This is an account of results in patent US20070265211A1, “Novel composition and method effective in inhibiting the atherogenic process” (priority 2006, published 2007).

The subject of experiment [1] is Human aortic smooth muscle cells. Put plainly: SMC proliferation by [3H]-thymidine incorporation into cellular DNA. Format: cell-based. Conditions: physiologically relevant concentration. A general note: Dividing cells build labelled thymidine or BrdU into new DNA.
Procedure: Human aortic smooth muscle cells (SMC, obtained from Clonetics) were cultured in DMEM (Dulbecco's modified Eagle's medium), supplemented with 10% fetal bovine serum, penicillin (100 μg/ml) and streptomycin (100 μg/ml) at 37° C. in a humidified atmosphere containing 5% CO2, and were split 1:3 to 1:5 upon reaching the confluence. SMC at passages 5-8 were used in experiments. […] SMC proliferation was assayed by [3H]-thymidine incorporation into cellular genetic material. Cells were plated in 24-well plates at a density of 10,000 cells per cm^2 in 0.5 ml of DMEM supplemented with 2% FBS. The attached cells were supplied every 24 hours with fresh growth medium plus additions, as specified in the protocols. Test agents included the nutrient mixture and individual components. […] Cell proliferation was measured 3 days later by the addition of 1 pCi/ml [3H]-thymidine to the cell culture for the last 4 hours of the experiment. […] Samples were mixed with scintillation fluid and counted using a liquid scintillation counter (model 6500 LS, Beckman Instruments, USA). Cellular DNA-incorporated radioactivity was expressed as d/min per well. In some wells cells were stained with Hematoxylin/Eosin and cell nucleus were counted under microscope in standard way chosen views covering total 65% of the well area. Cell counting data expressed as cell number per well.
The test system of experiment [2] is vascular smooth muscle cells (VSMC) from guinea-pig aorta. Conditions: 0.5-2.0 mM ascorbate; direct and matrix-mediated effects; cited from earlier work.

Structures are written as SMILES.

In the case of `O=C(O[C@@H]1Cc2c(O)cc(O)cc2O[C@@H]1c1cc(O)c(O)c(O)c1)c1cc(O)c(O)c(O)c1` [epigallocatechin gallate], in experiment [1], the “Cultured human aortic SMC growth rate (rate of cellular DNA synthesis)” value is “significantly reduced”.

Take `O=C1O[C@H]([C@@H](O)CO)C(O)=C1O` [ascorbate, ascorbic acid]: the “Proliferation of VSMC from guinea-pig aorta” value in experiment [2] is listed as “dose-dependent decreased proliferation”.
